Here are results for 41 molecules from article PMC12527977, “Discovery of a novel tetrapeptide as glucose homeostasis modulator with bifunctionalities of targeting DPP‐IV and microbiota” (iMeta, 2025).

Read-outs that look alike come from different tables or passages of the source. Where a SMILES comes first, the peptide text is derived from it. Where no end group is shown, it is not given here.

For data set [1], the target named is T1, DPP-IV (Homo sapiens, UniProt P27487). As to the kind of experiment: DPP-IV inhibitory activity of peptides (DPP-IV-Glo Protease Assay Kit). Particulars: for DPP-IV inhibitory activity: DPP-IV-Glo Protease Assay Kit, control = 0, in % (unit assumed). Also noted: purchased QiZheng Biotech (Shanghai, China) IBDPP0901. The class given is biochemical.
Target sequence in this assay (P27487 whole entry): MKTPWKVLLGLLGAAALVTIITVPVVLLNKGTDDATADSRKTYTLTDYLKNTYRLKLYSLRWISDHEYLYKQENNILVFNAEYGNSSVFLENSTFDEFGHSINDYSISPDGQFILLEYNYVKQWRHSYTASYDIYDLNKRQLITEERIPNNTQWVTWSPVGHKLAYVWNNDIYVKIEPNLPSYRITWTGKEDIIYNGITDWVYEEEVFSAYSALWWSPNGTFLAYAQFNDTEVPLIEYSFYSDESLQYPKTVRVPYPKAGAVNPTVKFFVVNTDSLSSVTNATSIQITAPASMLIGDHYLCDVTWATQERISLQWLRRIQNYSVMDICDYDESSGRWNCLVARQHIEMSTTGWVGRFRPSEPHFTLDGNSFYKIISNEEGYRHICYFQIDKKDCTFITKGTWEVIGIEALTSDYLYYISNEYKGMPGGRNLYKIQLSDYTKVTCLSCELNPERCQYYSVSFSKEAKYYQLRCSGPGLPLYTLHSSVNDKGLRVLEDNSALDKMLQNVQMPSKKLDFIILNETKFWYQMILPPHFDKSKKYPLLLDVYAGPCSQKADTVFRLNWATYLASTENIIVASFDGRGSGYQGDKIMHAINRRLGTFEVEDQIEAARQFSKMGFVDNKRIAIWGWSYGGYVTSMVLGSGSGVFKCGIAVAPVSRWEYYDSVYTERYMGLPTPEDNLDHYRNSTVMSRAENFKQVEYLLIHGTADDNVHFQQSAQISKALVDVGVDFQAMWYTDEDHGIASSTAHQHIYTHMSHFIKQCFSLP
Data set [2] in a line: Simulated digestive stability of peptides (pepsase then trypsase). The class given is in vitro ADME, porcine. Particulars: pig, relative to basal 100, sheet S2H; for remaining at 4 h, 5 mg/mL: pH 7, simulated digestion, after pepsase then trypsase, read-out: Peptide remaining, Trypsase; for remaining at 2 h, 5 mg/mL: porcine pepsase (simulated gastric digestion), pH 3, simulated digestion, after porcine pepsase, read-out: Peptide remaining, Pepsase. The procedure: The in vitro digestibility of the peptides was determined according to the method described by Ohanenye et al. with some modifications. Briefly, 5.0 mg/mL peptides were mixed with 5000 U/mL porcine pepsase (pH 3.0). The mixture was incubated with continuous shaking in a water bath at 37 ℃ for 2 h. Then, the mixture was adjusted to pH 7.0, and a final concentration of 100 U/mL trypsase was added, followed by continuous shaking at 37 ℃ for another 2 h. After digestion, the enzyme was inactivated, and the mixture was incubated in a water bath (100 ℃) for 20 min. Subsequently, the mixture was centrifuged at 6000 rpm for 20 min, after which the supernatants were collected for further analysis. The concentrations of peptides in the digestions and TPH were determined via AB SCIEX QTrap 6600+ (AB Sciex, Framingham, Massachusetts).

Data set [3] has as its target T1, DPP-IV. As to the kind of experiment: Surface plasmon resonance (Biacore 8K, CM5 chip, 25 °C). Also noted: purchased QiZheng Biotech (Shanghai, China) IBDPP0901. In kind it is binding. Background: SPR reads the build-up and loss of mass on a sensor chip optically.
For a further data set, the target named is dipeptidyl peptidase IV (UniProt P27487).
dipeptidyl peptidase IV, sequence (P27487 41-765): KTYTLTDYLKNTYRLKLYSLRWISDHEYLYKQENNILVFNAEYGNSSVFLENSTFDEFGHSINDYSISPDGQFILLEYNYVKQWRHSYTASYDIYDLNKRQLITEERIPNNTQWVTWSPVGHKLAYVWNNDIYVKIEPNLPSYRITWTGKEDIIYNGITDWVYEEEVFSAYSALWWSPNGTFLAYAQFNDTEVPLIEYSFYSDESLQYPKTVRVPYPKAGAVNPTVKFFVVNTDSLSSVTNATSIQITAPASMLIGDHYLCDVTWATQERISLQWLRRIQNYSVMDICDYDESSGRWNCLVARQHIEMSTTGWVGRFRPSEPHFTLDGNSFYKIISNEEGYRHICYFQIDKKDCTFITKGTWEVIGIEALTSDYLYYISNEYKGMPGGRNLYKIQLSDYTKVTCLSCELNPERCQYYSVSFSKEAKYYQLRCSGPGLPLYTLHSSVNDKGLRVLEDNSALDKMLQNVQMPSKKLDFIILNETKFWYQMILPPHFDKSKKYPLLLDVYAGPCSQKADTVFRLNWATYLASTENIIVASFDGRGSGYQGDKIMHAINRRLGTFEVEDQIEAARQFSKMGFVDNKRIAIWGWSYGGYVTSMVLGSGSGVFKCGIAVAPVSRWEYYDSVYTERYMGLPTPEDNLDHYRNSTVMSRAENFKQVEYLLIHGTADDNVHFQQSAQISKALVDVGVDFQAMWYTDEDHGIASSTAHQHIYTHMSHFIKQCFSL
The mark [4] stands for this setting: SPR, Table S3, read-out: KD values.

A word on the IC50: it is the concentration at which inhibition is half-maximal. As to `CC(C)C[C@H](NC(=O)[C@@H](N)Cc1ccccc1)C(=O)N[C@@H](CCC(N)=O)C(=O)O` [FLQ] (H-Phe-Leu-Gln-OH), the DPP-IV inhibitory activity at DPP-IV [1] (replicate 1, sheet S2F) is 25.2277; at DPP-IV [1] (replicate 2, sheet S2F), 32.7776; at DPP-IV [1] (replicate 3, sheet S2F), 32.9911. The IC50 at DPP-IV [1] (Table S3, read-out: IC50) was 4130 µM.

Consider `CC(C)C[C@H](NC(=O)[C@H](CCC(N)=O)NC(=O)[C@@H](N)Cc1ccccc1)C(=O)O` [FQL] (H-Phe-Gln-Leu-OH), for which the DPP-IV inhibitory activity at DPP-IV [1] (replicate 1, sheet S2F) stood at 25.4694; at DPP-IV [1] (replicate 2, sheet S2F), 22.9016; on DPP-IV [1] (replicate 3, sheet S2F) it was 15.9024. For the same molecule, the IC50 on DPP-IV [1] (Table S3, read-out: IC50) turned out to be 970 µM.

In general, share remaining refers to what is left of the initial amount, in per cent. In general, Kd refers to a measure of binding affinity in units of concentration. Consider `CC(C)C[C@H](NC(=O)[C@@H](N)CC(C)C)C(=O)N[C@@H](Cc1ccc(O)cc1)C(=O)O` [LLY] (H-Leu-Leu-Tyr-OH), for which the DPP-IV inhibitory activity is listed as 32.8224 at DPP-IV [1] (replicate 1, sheet S2F); 33.3933 at DPP-IV [1] (replicate 2, sheet S2F); 36.9146 on DPP-IV [1] (replicate 3, sheet S2F). The IC50 at DPP-IV [1] (Table S3, read-out: IC50) is 830 µM. Also, the values for the fraction remaining at 4 h, 5 mg/mL in data set [2] (replicate 1), in data set [2] (replicate 2) and in data set [2] (replicate 3) were 0.95%, 0.78% and 0.81%, respectively. Moreover, the results for the amount remaining at 2 h, 5 mg/mL in data set [2] (replicate 1), in data set [2] (replicate 2) and in data set [2] (replicate 3) were 1.24%, 0.79% and 0.98%, respectively. Further, at DPP-IV [3] (setting [4]), the dissociation constant (Kd) turned out to be 5.23 µM.

As for `CC(C)C[C@H](N)C(=O)N[C@@H](CC(N)=O)C(=O)N[C@@H](C)C(=O)N1CCC[C@H]1C(=O)O` [LNAP] (H-LNAP-OH), the DPP-IV inhibitory activity on DPP-IV [1] (replicate 1, sheet S2F) is listed as 13.9411; on DPP-IV [1] (replicate 2, sheet S2F), 16.0533; at DPP-IV [1] (replicate 3, sheet S2F) it was 12.0865. Further, the IC50 at DPP-IV [1] (Table S3, read-out: IC50) is 590 µM.

For `N[C@@H](Cc1c[nH]c2ccccc12)C(=O)N[C@@H](CC(=O)O)C(=O)N[C@@H](CO)C(=O)N[C@@H](Cc1ccc(O)cc1)C(=O)O` [WDSY] (H-WDSY-OH), the DPP-IV inhibitory activity turned out to be 82.2499 on DPP-IV [1] (replicate 1, sheet S2F); 85.4257 on DPP-IV [1] (replicate 2, sheet S2F); 81.38 on DPP-IV [1] (replicate 3, sheet S2F). The IC50 on DPP-IV [1] (Table S3, read-out: IC50) was found to be 630 µM.

On to `CC(C)C[C@H](NC(=O)[C@@H](N)Cc1c[nH]c2ccccc12)C(=O)N[C@@H](CCC(=O)O)C(=O)O` [WLE] (H-Trp-Leu-Glu-OH), for which the DPP-IV inhibitory activity on DPP-IV [1] (replicate 1, sheet S2F) was found to be 21.3239; on DPP-IV [1] (replicate 2, sheet S2F), 16.4075; at DPP-IV [1] (replicate 3, sheet S2F), 17.3019. The IC50 on DPP-IV [1] (Table S3, read-out: IC50) came to 2400 µM.

Turning to `CC(C)C[C@H](NC(=O)[C@H](CC(N)=O)NC(=O)[C@@H](N)Cc1ccc(O)cc1)C(=O)O` [YNL] (H-Tyr-Asn-Leu-OH), the DPP-IV inhibitory activity is reported as 24.2295 at DPP-IV [1] (replicate 1, […]); 23.675 at DPP-IV [1] (replicate 2, […]); 21.7871 at DPP-IV [1] (replicate 3, […]). Also, the IC50 on DPP-IV [1] (Table S3, read-out: IC50) was 140 µM.

For the molecule `CC(C)C[C@H](NC(=O)[C@H](CCC(N)=O)NC(=O)[C@@H](N)Cc1ccc(O)cc1)C(=O)O` [YQL] (H-Tyr-Gln-Leu-OH), the DPP-IV inhibitory activity is 20.7988 on DPP-IV [1] (replicate 1, […]); 21.5571 on DPP-IV [1] (replicate 2, […]); 29.5286 at DPP-IV [1] (replicate 3, […]). For the same molecule, the IC50 on DPP-IV [1] (Table S3, read-out: IC50) was 280 µM.

On to `C[C@@H](O)[C@H](NC(=O)[C@@H](N)Cc1ccc(O)cc1)C(=O)NCC(=O)N[C@@H](CC(=O)O)C(=O)O` [YTGD] (H-YTGD-OH), for which the DPP-IV inhibitory activity on DPP-IV [1] (replicate 1, sheet S2F) turned out to be 20.1405; on DPP-IV [1] (replicate 2, sheet S2F) it was 15.5931; on DPP-IV [1] (replicate 3, sheet S2F) it was 21.6532. On DPP-IV [1] (Table S3, read-out: IC50), the IC50 was found to be 320 µM. Besides, the Kd at DPP-IV [3] (setting [4]) came out at 100 µM.

On DPP-IV [1], FDGEL [FDGEL] came in with an IC50 of 45100 µM. Besides, the DPP-IV inhibitory activity on DPP-IV [1] (replicate 1, […]) amounted to 28.637; on DPP-IV [1] (replicate 2, […]), 26.7775; on DPP-IV [1] (replicate 3, […]), 19.1292.

For FLQ (peptide), in the data set with dipeptidyl peptidase IV, the IC50 of inhibition of DPP-IV activity in vitro turned out to be 4130 µM.

As to FNPRG [FNPRG], half-maximal inhibition at DPP-IV [1] (IC50) was put at 40500 µM. Besides, the DPP-IV inhibitory activity is 47.4625 on DPP-IV [1] (replicate 1, […]); 43.5702 on DPP-IV [1] (replicate 2, […]); 43.4293 at DPP-IV [1] (replicate 3, […]).

Turning to FNVDSE [FNVDSE], at DPP-IV [1], half-maximal inhibition (IC50) required 84000 µM. The DPP-IV inhibitory activity on DPP-IV [1] (replicate 1, […]) was 14.7737; at DPP-IV [1] (replicate 2, […]), 13.6123; at DPP-IV [1] (replicate 3, […]) it was 13.4568.

For FQL (peptide), the IC50 of inhibition of DPP-IV activity in vitro with dipeptidyl peptidase IV stood at 970 µM.

The molecule LLY (peptide) gave an IC50 of inhibition of DPP-IV activity in vitro in the data set with dipeptidyl peptidase IV of 830 µM.

In turn, PQNHA [PQNHA] displayed an IC50 against DPP-IV [1] of 24600 µM. In addition, the DPP-IV inhibitory activity at DPP-IV [1] (replicate 1, […]) is reported as 27.665; on DPP-IV [1] (replicate 2, […]), 17.6559; on DPP-IV [1] (replicate 3, […]) it was 16.9893.

Consider PSSQQ (peptide), for which the IC50 of inhibition of DPP-IV activity in vitro with dipeptidyl peptidase IV turned out to be 730 µM.

Molecule PSSQQ [PSSQQ] came in with an IC50 on DPP-IV [1] of 730 µM. Moreover, the DPP-IV inhibitory activity on DPP-IV [1] (replicate 1, […]) is on record as 8.036; at DPP-IV [1] (replicate 2, […]), 8.558; at DPP-IV [1] (replicate 3, […]) it was 22.2643. At DPP-IV [3], this molecule gave a Kd of 37000 µM.

Turning to VFTPQ [VFTPQ], on DPP-IV [1], 18500 µM corresponded to half-maximal inhibition (IC50). The DPP-IV inhibitory activity amounted to 17.5527 on DPP-IV [1] (replicate 1, […]); 15.1374 on DPP-IV [1] (replicate 2, […]); 15.1911 at DPP-IV [1] (replicate 3, […]).

For WIAVK [WIAVK], it took 600 µM to reach half-maximal inhibition against DPP-IV [1] (IC50). Besides, the DPP-IV inhibitory activity on DPP-IV [1] (replicate 1, […]) was 55.8181; on DPP-IV [1] (replicate 2, […]) it was 53.6066; on DPP-IV [1] (replicate 3, […]), 51.0205.

In the case of WLE (peptide), the IC50 of inhibition of DPP-IV activity in vitro in the data set with dipeptidyl peptidase IV is 2400 µM.

In the data set with dipeptidyl peptidase IV, YNL (peptide) displayed an IC50 of inhibition of DPP-IV activity in vitro of 140 µM.

With YQL (peptide), the IC50 of inhibition of DPP-IV activity in vitro with dipeptidyl peptidase IV was found to be 280 µM.

Regarding YTPHW [YTPHW], the DPP-IV inhibitory activity is 18.6094 on DPP-IV [1] (replicate 1, […]); 9.79 on DPP-IV [1] (replicate 2, […]); 21.0526 at DPP-IV [1] (replicate 3, […]). The IC50 on DPP-IV [1] (Table S3, read-out: IC50) is 7110 µM.

For PQNHA, the IC50 of inhibition of DPP-IV activity in vitro in the data set with dipeptidyl peptidase IV was 24600 µM.

With VAMP, the IC50 of inhibition of DPP-IV activity in vitro with dipeptidyl peptidase IV came out at 1 µM.

Consider WNVN, for which the IC50 of inhibition of DPP-IV activity in vitro with dipeptidyl peptidase IV worked out at 150 µM.

In the data set with dipeptidyl peptidase IV, FDGEL came in with an IC50 of inhibition of DPP-IV activity in vitro of 45100 µM.

YTGD returned an IC50 of inhibition of DPP-IV activity in vitro with dipeptidyl peptidase IV of 320 µM.

As for WIAVK, the IC50 of inhibition of DPP-IV activity in vitro with dipeptidyl peptidase IV amounted to 600 µM.

Molecule WDSY gave an IC50 of inhibition of DPP-IV activity in vitro in the data set with dipeptidyl peptidase IV of 630 µM.

In the data set with dipeptidyl peptidase IV, YNLP came in with an IC50 of inhibition of DPP-IV activity in vitro of 510 µM.

In the data set with dipeptidyl peptidase IV, YSYA returned an IC50 of inhibition of DPP-IV activity in vitro of 410 µM.

For the molecule FNVDSE, in the data set with dipeptidyl peptidase IV, the IC50 of inhibition of DPP-IV activity in vitro was 84000 µM.

In the case of YTPHW, the IC50 of inhibition of DPP-IV activity in vitro in the data set with dipeptidyl peptidase IV was 7110 µM.

Turning to FPQS, in the data set with dipeptidyl peptidase IV, the IC50 of inhibition of DPP-IV activity in vitro was found to be 350 µM.

For the molecule LNAP, the IC50 of inhibition of DPP-IV activity in vitro in the data set with dipeptidyl peptidase IV was found to be 590 µM.

As to VADW, the IC50 of inhibition of DPP-IV activity in vitro with dipeptidyl peptidase IV worked out at 350 µM.

In the case of YQLM, the IC50 of inhibition of DPP-IV activity in vitro with dipeptidyl peptidase IV worked out at 650 µM.

In the data set with dipeptidyl peptidase IV, VFTPQ yielded an IC50 of inhibition of DPP-IV activity in vitro of 18500 µM.

Take FNPRG: the IC50 of inhibition of DPP-IV activity in vitro in the data set with dipeptidyl peptidase IV worked out at 40500 µM.
